This is an account of results in US5405869A, “Anti-tumor platinum complexes” (Istituto Nazionale per la Ricerca sul Cancro, priority 1991, dated 1995).

For one assay, the system named is leukemia cells Jurkat. The following applies: read-out: ID50, incorporation of tritiated thymidine at 48 hours. As to the method: (§1) The evaluation of the cytotoxic activities of the compounds (1) was carried out "in vitro" measuring, according to known methods, the inhibition of the colony formation, the cell viability (Trypan blu) and the incorporation of tritiated thymidine in tumoral and normal cells.

The subject of another assay is leukemia cells P388. The following applies: read-out: ID50; P388, incorporation of tritiated thymidine at 48 hours. As for the experimental part: as §1
The test system of another assay is leukemia cells K562. The following applies: read-out: ID50; K562, incorporation of tritiated thymidine at 48 hours. As for the experimental part: as §1

Take “cis-diamino-chloro-(4-amino)benzoate-platinum(II) hydrochloride [Compound 1A]”: the IC50 with leukemia cells Jurkat came out at 21.3 µM; in the assay on leukemia cells P388, 11.4 µM; in the assay with leukemia cells K562, 26.3 µM.
